Square brackets hold non-standard residues; d marks the D form. Ends that are not written are not given here. pY = N[C@@H](Cc1ccc(OP(=O)(O)O)cc1)C(=O)O

Consider 1 substance from paper PMC3670040, “Structure of Lipid Kinase p110β/p85β Elucidates an Unusual SH2-Domain-Mediated Inhibitory Mechanism” (Molecular Cell, 2011).

In one assay the test system is p110β. Briefly: Transcreener ADP formation (fluorescence polarization), diC8-PIP2/POPS liposomes, mouse p110β complexes. It counts as biochemical. The conditions noted are these: ADP formation, 10 μM, Figure 1B. How it is done: Figure 1 Inhibition of p110β by p85-Type Regulatory Subunits and Activation of the Complexes by RTK Phosphopeptide (A) Domain organization of p110β and the regulatory subunits p85α, p85β, and p55γ. The color scheme for the domains is used for all figures, unless otherwise stated. […] The inhibition is released upon addition of the 10 μM PDGFR pY2. […] The y axis is expressed as a change in fluorescence polarization (ΔmP), which is obtained by subtracting the observed polarization for the construct at a given enzyme concentration from the maximum fluorescence polarization for that construct. The plateau in these assays arises due to the competitive nature of the ADP detection system, based on displacement of ADP-Alexa 633 tracer from the ADP^2-antibody by ADP generated during the PI3K assay (see Supplemental Experimental Procedures). All measurements were done in triplicates, and the error bars indicate the standard error of the mean (SEM). […]
Figure 3 Mutation Y677A in p85β-cSH2 Releases Inhibitory Effect on p110β (A) Kinase activity (ADP formation) of p110β in a complex with p85β-icSH2-Y677A (Y677A-ic) compared to the wild-type complex (ic) in the absence and presence of 10 μM PDGFR pY2 (ADP formation on the y axis expressed as in Figure 1B). […]
(§1) The lipid kinase activity was determined using the Transcreener ADP2 FP Assay (BellBrook Labs, Madison, WI) according to manufacturer‟s specifications. This non-radioactive assay measures activity by quantitating the amount of ADP formed. The ADP formed by PI3K competes with fluorescent ADP tracer for binding to an anti-ADP antibody, thereby decreasing fluorescence polarization. Because of the competitive nature of this assay, the change in fluorescence polarization signal is not a linear function of enzyme activity, and a convenient measure of enzyme activity is the EC50, or the concentration of enzyme necessary to give half-maximal inhibition of labeled ADP binding to the antibody, for a given concentration of substrate and a fixed time of reaction at initial rate. […]
For orientation: Fluorescence polarisation rises when a labelled molecule tumbles more slowly, as on binding a larger partner.

For another assay, the system named is p110β/p85β complexes. Description: Transcreener ADP formation, soluble monomeric diC8-PIP2 substrate. It counts as biochemical, mouse. The conditions noted are these: p110β/p85-niSH2 and p110β/p85-icSH2 complexes. How it is done:
Figure 1 Inhibition of p110β by p85-Type Regulatory Subunits and Activation of the Complexes by RTK Phosphopeptide (A) Domain organization of p110β and the regulatory subunits p85α, p85β, and p55γ. The color scheme for the domains is used for all figures, unless otherwise stated. […] The inhibition is released upon addition of the 10 μM PDGFR pY2. […] The y axis is expressed as a change in fluorescence polarization (ΔmP), which is obtained by subtracting the observed polarization for the construct at a given enzyme concentration from the maximum fluorescence polarization for that construct. […]
as §1

Turning to “ESDGG[pY]MDMSKDESID[pY]VPMLDMKGDIKYADIE [pY2, bis-phosphopeptide (PDGFR 735–767, with pY740 and pY751)]”, in the assay with p110β, the “effect on activity of p110β/p85β-iSH2 or ΔABD-p110β” value is listed as “did not affect the activity”. Also, the “effect on kinase activity of complexes containing SH2 domains” value in the assay with p110β (nicSH2, niSH2, or icSH2 complexes) is “stimulates kinase activity”. In addition, the “activity with soluble lipid substrate in the presence of pY2” value in the assay with p110β/p85β complexes is “enhanced”.
